Measurements reported in article PMC7587356, “High-Throughput Screening for Inhibitors of the SARS-CoV-2 Protease Using a FRET-Biosensor” (Molecules, 2020).
Counter-ions that a name gives are not always drawn. Like-named read-outs stand apart in the source and are kept apart here.

Target: SARS-CoV-2 3CLpro (Severe acute respiratory syndrome coronavirus 2, UniProt P0DTD1)
Experiment: biochemical
Type: biochemical
Set-up: Replicate_1 / Replicate_2 / mean / mean (LOPAC_screen_w_protease): unit not given here
Conditions: for inhibition at 5 µM: 4 h; for mean (LOPAC_screen_w_protease) / Replicate_1 (LOPAC_screen_w_protease) / Replicate_2 (LOPAC_screen_w_protease): LOPAC1280 primary screen with protease, 5 µM compound
[1] = sheet LOPAC_screen_w_protease, primary screen with protease, mean of two replicates
[2] = sheet LOPAC_screen_w_protease, primary screen with protease, replicate 1
[3] = sheet LOPAC_screen_w_protease, primary screen with protease, replicate 2
[4] = sheet LOPAC_screen_w_protease, LOPAC1280 primary screen at 5 µM, with protease, mean of the two replicates, read-out: mean
[5] = sheet LOPAC_screen_w_protease, LOPAC1280 primary screen at 5 µM, with protease, replicate 1, read-out: Replicate_1
[6] = sheet LOPAC_screen_w_protease, LOPAC1280 primary screen at 5 µM, with protease, replicate 2, read-out: Replicate_2

**Q.** With `C#CCOC(=O)C1=CCCN(C)C1` [Arecaidine propargyl ester hydrobromide] as the molecule, how does the inhibition at 5 µM (sheet LOPAC_screen_w_protease, LOPAC1280 at 5 µM, mean of two replicates, read-out: mean) read?
**A.** 1.23%

**Q.** And the inhibition at 5 µM (sheet LOPAC_screen_w_protease, LOPAC1280 at 5 µM, replicate 1, read-out: Replicate_1)?
**A.** 0.854%

**Q.** And the inhibition at 5 µM (sheet LOPAC_screen_w_protease, LOPAC1280 at 5 µM, replicate 2, read-out: Replicate_2)?
**A.** 1.62%

**Q.** What does the source list for `CN(C)C(=O)C(CCN1CCC(O)(c2ccc(Cl)cc2)CC1)(c1ccccc1)c1ccccc1` [Loperamide hydrochloride]?
**A.** inhibition at 5 µM (sheet LOPAC_screen_w_protease, primary screen with protease, mean of two replicates, read-out: mean): 2.22%; inhibition at 5 µM (sheet LOPAC_screen_w_protease, primary screen with protease, replicate 1, read-out: Replicate_1): 4.2%; inhibition at 5 µM (sheet LOPAC_screen_w_protease, primary screen with protease, replicate 2, read-out: Replicate_2): 0.237%

**Q.** For `Nc1ncnc2c1nc(Sc1ccc(Cl)cc1)n2C1OC2COP(=O)(O)OC2C1O` (stereo in doubt) [8-(4-Chlorophenylthio)-cAMP sodium], which mean (sheet LOPAC_screen_w_protease, LOPAC1280 primary screen at 5 µM, with protease, mean of the two replicates) is on record?
**A.** 0.5451

**Q.** And the Replicate_1 (sheet LOPAC_screen_w_protease, LOPAC1280 primary screen at 5 µM, with protease, replicate 1)?
**A.** 0.8706

**Q.** And the Replicate_2 (sheet LOPAC_screen_w_protease, LOPAC1280 primary screen at 5 µM, with protease, replicate 2)?
**A.** 0.2195

**Q.** With `CS(=O)(=O)Nc1ccc([N+](=O)[O-])cc1Oc1ccccc1` [Nimesulide] as the molecule, how does the inhibition at 5 µM (read-out: Replicate_1) read?
**A.** 4.73%

**Q.** What about the inhibition at 5 µM (read-out: Replicate_2) of the same molecule?
**A.** 4.45%

**Q.** And the inhibition at 5 µM (read-out: mean)?
**A.** 4.59%

**Q.** What does the source list for `NC/C=C\C(=O)O` [cis-4-Aminocrotonic acid]?
**A.** mean [1]: 2.546; Replicate_1 [2]: 3.312; Replicate_2 [3]: 1.781

**Q.** What does the source list for `Nc1nc(O)c2ncn(COC(CO)CO)c2n1` [Ganciclovir]?
**A.** inhibition at 5 µM [4]: 0.74%; inhibition at 5 µM [5]: 1%; inhibition at 5 µM [6]: 0.479%

**Q.** `Cl.Nc1ccn([C@@H]2O[C@H](CO)[C@@H](O)[C@@H]2O)c(=O)n1` was tested. Which mean [1] did it give?
**A.** 2.239

**Q.** And the Replicate_1 [2]?
**A.** 1.947

**Q.** What about the Replicate_2 [3] of the same molecule?
**A.** 2.5319

**Q.** With `C=CC1=C(C)c2cc3[nH]c(cc4nc(cc5[nH]c(cc1n2)c(C)c5CCC(=O)O)C(CCC(=O)O)=C4C)c(C)c3C=C` [Protoporphyrin IX disodium] as the molecule, how does the inhibition at 5 µM (read-out: Replicate_1) read?
**A.** 2.66%

**Q.** What about the inhibition at 5 µM (read-out: Replicate_2) of the same molecule?
**A.** 2.42%

**Q.** What about the inhibition at 5 µM (read-out: mean) of the same molecule?
**A.** 2.54%

**Q.** With `CC[C@@H]1C(=O)OC[C@@H]1Cc1cncn1C` [Pilocarpine nitrate] as the molecule, how does the inhibition at 5 µM (sheet LOPAC_screen_w_protease, primary screen with protease, 5 µM, mean of two replicates, read-out: mean) read?
**A.** -0.33%

**Q.** And the inhibition at 5 µM (sheet LOPAC_screen_w_protease, primary screen with protease, 5 µM, replicate 1, read-out: Replicate_1)?
**A.** -0.127%

**Q.** And the inhibition at 5 µM (sheet LOPAC_screen_w_protease, primary screen with protease, 5 µM, replicate 2, read-out: Replicate_2)?
**A.** -0.532%

**Q.** With `O=[N+]([O-])c1cc2nc(O)c(O)nc2cc1[N+](=O)[O-]` [DNQX] as the molecule, how does the Replicate_1 read?
**A.** 2.956

**Q.** And the Replicate_2?
**A.** 2.135

**Q.** What about the mean of the same molecule?
**A.** 2.546

**Q.** Which results are given for `CCC1(C2=NCCN2)Cc2ccccc2O1` (stereo not drawn) [Efaroxan hydrochloride]?
**A.** inhibition at 5 µM [4]: 0.692%; inhibition at 5 µM [5]: 2.34%; inhibition at 5 µM [6]: -0.954%

**Q.** Which mean (sheet LOPAC_screen_w_protease, primary screen with protease, compound at 5 µM, mean of two replicates) does the source give for `CC(C)(C)c1onc(OCP(=O)(O)O)c1CC(N)C(=O)O` (stereo not drawn) [ATPO] here?
**A.** 3.0772

**Q.** What about the Replicate_1 (sheet LOPAC_screen_w_protease, primary screen with protease, compound at 5 µM, replicate 1) of the same molecule?
**A.** 4.002

**Q.** And the Replicate_2 (sheet LOPAC_screen_w_protease, primary screen with protease, compound at 5 µM, replicate 2)?
**A.** 2.152

**Q.** For `O=C(CCNNC(=O)c1ccncc1)NCc1ccccc1` [Nialamide], which inhibition at 5 µM (sheet LOPAC_screen_w_protease, primary screen of LOPAC1280 at 5 µM with protease, mean of the two replicates, read-out: mean) is on record?
**A.** 3.19%

**Q.** What about the inhibition at 5 µM (sheet LOPAC_screen_w_protease, primary screen of LOPAC1280 at 5 µM with protease, replicate 1, read-out: Replicate_1) of the same molecule?
**A.** 4.27%

**Q.** And the inhibition at 5 µM (sheet LOPAC_screen_w_protease, primary screen of LOPAC1280 at 5 µM with protease, replicate 2, read-out: Replicate_2)?
**A.** 2.12%

**Q.** With `Br.CCCN(CCC)C1CCc2ccc(O)cc2C1` (racemic) [(±)-7-Hydroxy-DPAT hydrobromide] as the molecule, how does the “mean (LOPAC_screen_w_protease)” value (mean of two replicates) read?
**A.** 1.681

**Q.** And the “Replicate_1 (LOPAC_screen_w_protease)” value (replicate 1)?
**A.** 3.951

**Q.** What about the “Replicate_2 (LOPAC_screen_w_protease)” value (replicate 2) of the same molecule?
**A.** -0.5891

**Q.** How did the mean [1] turn out when `Cc1ccccc1N1CCN(S(=O)(=O)CC23CCC(CC2NC(=O)C(N)CCS(C)(=O)=O)C3(C)C)CC1.Cl` [L-368,899] was run?
**A.** 2.3895

**Q.** And the Replicate_1 [2]?
**A.** 2.509

**Q.** What about the Replicate_2 [3] of the same molecule?
**A.** 2.27

**Q.** With `CCSC(=N)Nc1ccc(C(F)(F)F)cc1.Cl` [TFPI hydrochloride] as the molecule, how does the “mean (LOPAC_screen_w_protease)” value (mean of two replicates) read?
**A.** 1.706

**Q.** And the “Replicate_1 (LOPAC_screen_w_protease)” value (replicate 1)?
**A.** 2.498

**Q.** What about the “Replicate_2 (LOPAC_screen_w_protease)” value (replicate 2) of the same molecule?
**A.** 0.9137

**Q.** How did the mean (sheet LOPAC_screen_w_protease, primary screen with protease, 5 µM, mean of two replicates) turn out when `O=C([O-])CCC(NC(=O)c1ccccc1C(=O)[O-])C(=O)[O-].[Na+].[Na+].[Na+]` [Phthalamoyl-L-glutamic acid trisodium] was run?
**A.** 0.2394

**Q.** What about the Replicate_1 (sheet LOPAC_screen_w_protease, primary screen with protease, 5 µM, replicate 1) of the same molecule?
**A.** 0.8142

**Q.** What about the Replicate_2 (sheet LOPAC_screen_w_protease, primary screen with protease, 5 µM, replicate 2) of the same molecule?
**A.** -0.3354

**Q.** What does the source list for `CCCC(C)(COC(N)=O)COC(=O)NC(C)C` (stereo not drawn) [Carisoprodol]?
**A.** inhibition at 5 µM (read-out: Replicate_1): -0.28%; inhibition at 5 µM (read-out: Replicate_2): 2.2%; inhibition at 5 µM (read-out: mean): 0.96%
